Data as given in ChEMBL document CHEMBL4513161, “CO-ADD screening of MMV (CH) - Pandemic Response Box” (2021).
≈ marks a conversion by molar mass, not a printed value. Structures can show the parent of a compound that is named as a salt.

Tests used:
HEK293 = assay: cells; assay type: functional, Homo sapiens, ATCC CRL1573; conditions: Homo sapiens, ATCC CRL1573, HEK293; ASSAY_TEST Inhibition of Cell Viability; detection method Resazurin; Fluorescence (ex560/em590); MEDIA DMEM with 10% FBS; plate type 384well; TC; CORNING #3712; time 18 hr; read-out: CC50
Candida albicans = assay: microbe, parasite or virus in culture; conditions: ATCC 90028, ASSAY_TEST Inhibition of Fungal Growth, detection method Absorption (OD530), plate type 384well, NBS, CORNING #3640
Description: Antifungal activity against Candida albicans ATCC 90028 (CO-ADD:FG_001); MIC in YNB media using NBS plates, by OD630

Acinetobacter baumannii = assay: microbe, parasite or virus in culture; conditions: ATCC 19606, 18 h, ASSAY_TEST Inhibition of Bacterial Growth, detection method Absorption (OD600), MEDIA CAMHB, plate type 384well, NBS, CORNING #3640
Description: Antibacterial activity against Acinetobacter baumannii ATCC 19606 (CO-ADD:GN_034); MIC in CAMBH media using NBS plates, by OD600

Klebsiella pneumoniae = assay: microbe, parasite or virus in culture; conditions: ATCC 700603, 18 h, ASSAY_TEST Inhibition of Bacterial Growth, detection method Absorption (OD600), MEDIA CAMHB, plate type 384well, NBS, CORNING #3640
Description: Antibacterial activity against Klebsiella pneumoniae MDR ATCC 70063 (CO-ADD:GN_003); MIC in CAMBH media using NBS plates, by OD(600)

Pseudomonas aeruginosa [1] = assay: microbe, parasite or virus in culture; conditions: ATCC 27853, 18 h, ASSAY_TEST Inhibition of Bacterial Growth, detection method Absorption (OD600), MEDIA CAMHB, plate type 384well, NBS, CORNING #3640
Description: Antibacterial activity against Pseudomonas aeruginosa ATCC 27853 (CO-ADD:GN_042); MIC in CAMBH media using NBS plates, by OD(600)

Pseudomonas aeruginosa [2] = assay: Antibacterial activity against Pseudomonas aeruginosa PAO397 [PAO1 d(mexAB-oprM) d(mexCD-oprJ) d(mexEF-oprN) d(mexJKL) d(mexXY) d(opmH)] (CO-ADD:GN_211); MIC in CAMBH media using NBS plates, by OD(600); assay type: functional; conditions: ASSAY_TEST Inhibition of Bacterial Growth, detection method Absorption (OD600), MEDIA CAMHB, plate type 384well, CORNING #3640, time 18 hr
Staphylococcus aureus = assay: microbe, parasite or virus in culture; conditions: ATCC 43300, 18 h, ASSAY_TEST Inhibition of Bacterial Growth, detection method Absorption (OD600), MEDIA CAMHB, plate type 384well, NBS, CORNING #3640
Description: Antibacterial activity against Staphylococcus aureus MRSA ATCC 43300 (CO-ADD:GP_020); MIC in CAMBH media, using NBS plates, by OD(600)

Escherichia coli = assay: microbe, parasite or virus in culture; conditions: ATCC 25922, 18 h, ASSAY_TEST Inhibition of Bacterial Growth, detection method Absorption (OD600), MEDIA CAMHB, plate type 384well, NBS, CORNING #3640
Description: Antibacterial activity against Escherichia coli ATCC 25922 (CO-ADD:GN_001); MIC in CAMBH media using NBS plates, by OD(600)

Description for Cryptococcus neoformans: Antifungal activity against Cryptococcus neoformans H99 ATCC 208821 (CO-ADD:FG_002); MIC in YNB media using NBS plates, by Resazurin OD(600-570)

| MIC (Candida albicans) | MIC (Acinetobacter baumannii) | MIC (Cryptococcus neoformans) | MIC (Klebsiella pneumoniae) | MIC (Pseudomonas aeruginosa [1]) | MIC (Pseudomonas aeruginosa [2]) | MIC (Staphylococcus aureus) | MIC (Escherichia coli) | SMILES | CC50 (HEK293) |
| --- | --- | --- | --- | --- | --- | --- | --- | --- | --- |
| > 20 µM | > 20 µM | > 20 µM | > 20 µM | > 20 µM | > 20 µM | > 20 µM | > 20 µM | COc1ccc(C2CNC(=O)C2)cc1OC1CCCC1 (stereo unspecified) [ROLIPRAM] | > 20 µM |
| > 20 µM | > 20 µM | > 20 µM | > 20 µM | > 20 µM | > 20 µM | > 20 µM | > 20 µM | Nc1cc(-c2nc3ccccc3[nH]2)n[nH]c1=O | > 20 µM |
| > 20 µM | > 20 µM | 20 µM | > 20 µM | > 20 µM | > 20 µM | > 20 µM | > 20 µM | CN(C/C=C/C#CC(C)(C)C)Cc1cccc2ccccc12 [TERBINAFINE HYDROCHLORIDE] | > 20 µM |
| > 20 µM | > 20 µM | > 20 µM | > 20 µM | > 20 µM | > 20 µM | > 20 µM | > 20 µM | C(=C\c1nc2ccccc2[nH]1)/c1ccc2c(c1)OCO2 | > 20 µM |
| > 20 µM | > 20 µM | > 20 µM | > 20 µM | > 20 µM | > 20 µM | 0.312 µM (≈ 0.161 µg/mL) | > 20 µM | CC(=O)O[C@H]1C[C@@]2(C)[C@@H](C[C@@H](O)[C@H]3[C@@]4(C)CC[C@@H](O)[C@@H](C)[C@@H]4CC[C@@]32C)/C1=C(\CCC=C(C)C)C(=O)O [FUSIDIC ACID] | > 20 µM |
| > 20 µM | > 20 µM | > 20 µM | > 20 µM | > 20 µM | > 20 µM | > 20 µM | > 20 µM | O=C(NCc1cccc2ccccc12)c1cccs1 | > 20 µM |
| > 20 µM | > 20 µM | > 20 µM | > 20 µM | > 20 µM | > 20 µM | > 20 µM | > 20 µM | NNC(=O)c1ccncc1 [ISONIAZID] | > 20 µM |
| > 20 µM | > 20 µM | > 20 µM | > 20 µM | > 20 µM | > 20 µM | > 20 µM | > 20 µM | Cc1ccc(NC(=O)c2ccc(CN3CCN(C)CC3)cc2)cc1Nc1nccc(-c2cccnc2)n1 [IMATINIB] | > 20 µM |
| > 20 µM | > 20 µM | > 20 µM | > 20 µM | > 20 µM | > 20 µM | > 20 µM | > 20 µM | Oc1ccc2[nH]c(-c3ccccc3)nc2c1 | > 20 µM |
| > 20 µM | > 20 µM | > 20 µM | > 20 µM | > 20 µM | > 20 µM | > 20 µM | > 20 µM | COc1ccc2c(c1)cc(CNC(=O)c1cc3ccccc3o1)n2CC(=O)O | > 20 µM |
| > 20 µM | > 20 µM | > 20 µM | > 20 µM | > 20 µM | 20 µM (≈ 3.91 µg/mL) | > 20 µM | > 20 µM | NC(=S)N/N=C/c1ncccc1N [TRIAPINE] | 2.83 µM |
| > 20 µM | > 20 µM | > 20 µM | > 20 µM | > 20 µM | > 20 µM | > 20 µM | > 20 µM | NC(=O)c1cnccn1 [PYRAZINAMIDE] | > 20 µM |
| > 20 µM | > 20 µM | > 20 µM | > 20 µM | > 20 µM | > 20 µM | > 20 µM | > 20 µM | Cc1cc(CCOc2c(C)cc(-c3nnn(C)n3)cc2C)on1 | > 20 µM |
| > 20 µM | > 20 µM | > 20 µM | > 20 µM | > 20 µM | > 20 µM | > 20 µM | > 20 µM | O=C(NCCN1CCCCC1)c1cccc(C(F)(F)F)c1 | > 20 µM |
| > 20 µM | > 20 µM | > 20 µM | > 20 µM | > 20 µM | > 20 µM | > 20 µM | > 20 µM | CC[C@@H](CO)NCCN[C@@H](CC)CO [ETHAMBUTOL] | > 20 µM |
| > 20 µM | > 20 µM | > 20 µM | > 20 µM | > 20 µM | > 20 µM | > 20 µM | > 20 µM | Nc1nc(-c2ccccc2)nc2c1ncn2[C@@H]1O[C@H](COS(=O)(=O)NC(=O)c2ccccc2O)[C@@H](O)[C@H]1O | > 20 µM |
| > 20 µM | > 20 µM | > 20 µM | 20 µM (≈ 4.97 µg/mL) | 2.5 µM (≈ 0.621 µg/mL) | > 20 µM | 1.25 µM (≈ 0.31 µg/mL) | 1.25 µM (≈ 0.31 µg/mL) | CCc1cc(O)c(Oc2cccnc2N)cc1F | > 20 µM |
| 10 µM (≈ 1.86 µg/mL) | > 20 µM | 20 µM (≈ 3.73 µg/mL) | > 20 µM | > 20 µM | > 20 µM | > 20 µM | > 20 µM | OB1OCc2c1ccc(Cl)c2F | > 20 µM |
| > 20 µM | > 20 µM | > 20 µM | > 20 µM | > 20 µM | > 20 µM | > 20 µM | > 20 µM | FC(F)(F)Oc1ccc(Nc2ccc3cccc(Cl)c3n2)cc1 [OBEFAZIMOD] | > 20 µM |
| > 20 µM | > 20 µM | > 20 µM | > 20 µM | > 20 µM | > 20 µM | > 20 µM | > 20 µM | Cc1nc(Nc2ccc(F)cc2)nc(N2CCc3ccccc3C2C)c1C (stereo unspecified) [REVAPRAZAN] | > 20 µM |
| > 20 µM | > 20 µM | > 20 µM | > 20 µM | > 20 µM | > 20 µM | > 20 µM | > 20 µM | O=C(O)/C=C/C=C/c1cccc(Oc2cc(Cl)cc(Cl)c2)c1 | > 20 µM |
| > 20 µM | > 20 µM | > 20 µM | > 20 µM | > 20 µM | > 20 µM | > 20 µM | > 20 µM | c1cc(CN2CCCNCCNCCCNCC2)ccc1CN1CCCNCCNCCCNCC1 [PLERIXAFOR] | > 20 µM |
| > 20 µM | > 20 µM | > 20 µM | > 20 µM | > 20 µM | > 20 µM | > 20 µM | > 20 µM | N=C(N)c1ccc(COc2ccc(Cl)cc2)cc1 | > 20 µM |
| > 20 µM | > 20 µM | > 20 µM | > 20 µM | > 20 µM | > 20 µM | > 20 µM | > 20 µM | CC(C)(C)NC(=O)[C@@H]1C[C@@H]2CCCC[C@@H]2CN1C[C@@H](O)[C@H](Cc1ccccc1)NC(=O)[C@H](CC(N)=O)NC(=O)c1ccc2ccccc2n1 | > 20 µM |
| > 20 µM | > 20 µM | > 20 µM | > 20 µM | > 20 µM | > 20 µM | > 20 µM | > 20 µM | NCCCc1ccccc1C(=O)Nc1ncc([N+](=O)O)s1 | > 20 µM |
| > 20 µM | > 20 µM | > 20 µM | > 20 µM | > 20 µM | > 20 µM | > 20 µM | > 20 µM | COc1ccc(SC(=O)N[C@H](CCC(=O)O)C(=O)O)cc1 | > 20 µM |
| > 20 µM | > 20 µM | > 20 µM | > 20 µM | > 20 µM | > 20 µM | > 20 µM | > 20 µM | Nc1nnnn1CCOc1c2[nH]c3ccc(Cl)cc3c2cc2c1[nH]c1ccc(Cl)cc12 | 19.9 µM |

| SMILES | MIC (Candida albicans) | MIC (Acinetobacter baumannii) | MIC (Cryptococcus neoformans) | MIC (Klebsiella pneumoniae) | MIC (Pseudomonas aeruginosa [1]) | MIC (Pseudomonas aeruginosa [2]) | MIC (Staphylococcus aureus) | MIC (Escherichia coli) | CC50 (HEK293) |
| --- | --- | --- | --- | --- | --- | --- | --- | --- | --- |
| CCCCCCCc1[nH]c2ccccc2c(=O)c1O | > 20 µM | > 20 µM | > 20 µM | > 20 µM | > 20 µM | > 20 µM | > 20 µM | > 20 µM | > 20 µM |
| O=C(NC12CC3CC(CC(C3)C1)C2)c1cc2ccccc2[nH]1 | > 20 µM | > 20 µM | > 20 µM | > 20 µM | > 20 µM | > 20 µM | > 20 µM | > 20 µM | > 20 µM |
